Experimental data as given in patent US9302999B2, “Substituted triazoles as herbicides” (E. I. DU PONT DE NEMOURS AND COMPANY, priority 2012, dated 2016).

Columns and labels:
Format in all cases: in vivo
[1] = test system: barnyardgrass (Echinochloa crus-galli); assay: Test A pre-/postemergence: barnyardgrass; conditions: for Barnyardgrass plant response rating: Postemergence; for Plant response rating, Barnyardgrass: Preemergence
In short: (§1)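 Pre: directed soil spray after planting in loam + sand. Post: same formulation (non-phytotoxic solvent + surfactant) on 1–2-leaf plants, 2–10 cm. Greenhouse ~10 d; visual injury 0–100 vs untreated.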

[2] = test system: crabgrass, large (large crabgrass, Digitaria sanguinalis); assay: Test A pre-/postemergence: crabgrass, large; conditions: for Crabgrass, Large plant response rating: Postemergence; for Plant response rating, Crabgrass, Large: Preemergence
In short: as §1

[3] = test system: foxtail, giant (giant foxtail, Setaria faberii); assay: Test A pre-/postemergence: foxtail, giant; conditions: for Foxtail, Giant plant response rating: Postemergence; for Plant response rating, Foxtail, Giant: Preemergence
In short: as §1

[4] = test system: morningglory (Ipomoea spp.); assay: Test A pre-/postemergence: morningglory; conditions: for Morningglory plant response rating: Postemergence; for Plant response rating, Morningglory: Preemergence
In short: as §1

[5] = test system: pigweed (Amaranthus retroflexus); assay: Test A pre-/postemergence: pigweed; conditions: for Pigweed plant response rating: Postemergence; for Plant response rating, Pigweed: Preemergence
In short: as §1

[6] = test system: velvetleaf (Abutilon theophrasti); assay: Test A pre-/postemergence: velvetleaf; conditions: for Velvetleaf plant response rating: Postemergence; for Plant response rating, Velvetleaf: Preemergence
In short: as §1

[7] = test system: wheat (Triticum aestivum); assay: Test A pre-/postemergence: wheat; conditions: for Wheat plant response rating: Postemergence; for Plant response rating, Wheat: Preemergence
In short: as §1

[8] = test system: corn (Zea mays); assay: Test A pre-/postemergence: corn; conditions: for Corn plant response rating: Postemergence; for Plant response rating, Corn: Preemergence
In short: as §1

[9] = test system: rice (Oryza sativa); assay: Test C flooded paddy test: rice; conditions: scale 0 to 100 (0 no effect, 100 complete control)
In short: (§2)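 2-leaf stage plants; pots flooded 3 cm above soil; compound applied into paddy water, depth maintained. Greenhouse 13–15 d. Visual rating vs controls, 0–100 (0 = no effect, 100 = complete control); dash = no result.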

[10] = test system: sedge, umbrella (small-flower umbrella sedge, Cyperus difformis); assay: Test C flooded paddy test: sedge, umbrella; conditions: scale 0 to 100 (0 no effect, 100 complete control)
In short: as §2

[11] = test system: ducksalad (Heteranthera limosa); assay: Test C flooded paddy test: ducksalad; conditions: scale 0 to 100 (0 no effect, 100 complete control)
In short: as §2

[12] = test system: barnyardgrass (Echinochloa crus-galli); assay: Test C flooded paddy test: barnyardgrass; conditions: scale 0 to 100 (0 no effect, 100 complete control)
In short: as §2

[13] = 125 g ai/ha, 0 to 100 scale, 0 is no effect, 100 is complete control
[14] = 500 g ai/ha, visual rating on 0 to 100 scale (0 no effect, 100 complete control), approximately ten days
[15] = 125 g ai/ha, 0 to 100 scale (0 no effect, 100 complete control)
[16] = 500 g ai/ha, 0 to 100 scale, 0 is no effect, 100 is complete control
[17] = Flood (flooded paddy test), 62 g ai/ha, visual rating after 13 to 15 days
[18] = Flood (flooded paddy test), 125 g ai/ha, visual rating after 13 to 15 days
[19] = Flood (flooded paddy test), 250 g ai/ha, visual rating after 13 to 15 days

Cc1nn(-c2cccc(C(F)(F)F)c2)nc1Oc1ccnc(C(F)(F)F)c1 [Compound 40]
Barnyardgrass plant response rating [1, 13]: 30 | Barnyardgrass plant response rating [1, 14]: 40 | Plant response rating, Barnyardgrass [1, 15]: 30 | Plant response rating, Barnyardgrass [1, 16]: 80 | Crabgrass, Large plant response rating [2, 13]: 80 | Crabgrass, Large plant response rating [2, 14]: 90 | Plant response rating, Crabgrass, Large [2, 15]: 100 | Plant response rating, Crabgrass, Large [2, 16]: 100 | Foxtail, Giant plant response rating [3, 13]: 60 | Foxtail, Giant plant response rating [3, 14]: 90 | Plant response rating, Foxtail, Giant [3, 15]: 100 | Plant response rating, Foxtail, Giant [3, 16]: 100 | Morningglory plant response rating [4, 13]: 70 | Morningglory plant response rating [4, 14]: 100 | Plant response rating, Morningglory [4, 15]: 0 | Plant response rating, Morningglory [4, 16]: 10 | Pigweed plant response rating [5, 13]: 100 | Pigweed plant response rating [5, 14]: 100 | Plant response rating, Pigweed [5, 15]: 90 | Plant response rating, Pigweed [5, 16]: 100 | Velvetleaf plant response rating [6, 13]: 70 | Velvetleaf plant response rating [6, 14]: 100 | Plant response rating, Velvetleaf [6, 15]: 10 | Plant response rating, Velvetleaf [6, 16]: 20 | Wheat plant response rating [7, 13]: 20 | Wheat plant response rating [7, 14]: 30 | Plant response rating, Wheat [7, 15]: 0 | Plant response rating, Wheat [7, 16]: 20 | Corn plant response rating [8, 13]: 10 | Corn plant response rating [8, 14]: 30 | Plant response rating, Corn [8, 15]: 0 | Plant response rating, Corn [8, 16]: 10 | Plant response rating, Rice [9, 17]: 10 | Plant response rating, Rice [9, 18]: 20 | Plant response rating, Rice [9, 19]: 25 | Plant response rating, Rice ([9]; Flood, 31 g ai/ha): 0 | Plant response rating, Sedge, Umbrella [10, 17]: 75 | Plant response rating, Sedge, Umbrella [10, 18]: 80 | Plant response rating, Sedge, Umbrella [10, 19]: 80 | Plant response rating, Sedge, Umbrella ([10]; Flood, 31 g ai/ha): 70 | Plant response rating, Ducksalad [11, 17]: 30 | Plant response rating, Ducksalad [11, 18]: 60 | Plant response rating, Ducksalad [11, 19]: 70 | Plant response rating, Ducksalad ([11]; Flood, 31 g ai/ha): 30 | Plant response rating, Barnyardgrass [12, 17]: 20 | Plant response rating, Barnyardgrass [12, 18]: 30 | Plant response rating, Barnyardgrass [12, 19]: 30 | Plant response rating, Barnyardgrass ([12]; Flood, 31 g ai/ha): 20

Cc1nn(-c2ccc([N+](=O)[O-])cc2)nc1C(=O)c1cccc(C(F)(F)F)c1 [Compound 41]
Barnyardgrass plant response rating [1, 13]: 10 | Barnyardgrass plant response rating [1, 14]: 10 | Plant response rating, Barnyardgrass [1, 15]: 10 | Plant response rating, Barnyardgrass [1, 16]: 20 | Crabgrass, Large plant response rating [2, 13]: 10 | Crabgrass, Large plant response rating [2, 14]: 30 | Plant response rating, Crabgrass, Large [2, 15]: 20 | Plant response rating, Crabgrass, Large [2, 16]: 70 | Foxtail, Giant plant response rating [3, 13]: 10 | Foxtail, Giant plant response rating [3, 14]: 20 | Plant response rating, Foxtail, Giant [3, 15]: 40 | Plant response rating, Foxtail, Giant [3, 16]: 70 | Morningglory plant response rating [4, 13]: 10 | Morningglory plant response rating [4, 14]: 10 | Plant response rating, Morningglory [4, 15]: 0 | Plant response rating, Morningglory [4, 16]: 10 | Pigweed plant response rating [5, 13]: 30 | Pigweed plant response rating [5, 14]: 80 | Plant response rating, Pigweed [5, 15]: 20 | Plant response rating, Pigweed [5, 16]: 50 | Velvetleaf plant response rating [6, 13]: 10 | Velvetleaf plant response rating [6, 14]: 50 | Plant response rating, Velvetleaf [6, 15]: 10 | Plant response rating, Velvetleaf [6, 16]: 10 | Wheat plant response rating [7, 13]: 0 | Wheat plant response rating [7, 14]: 10 | Plant response rating, Wheat [7, 15]: 0 | Plant response rating, Wheat [7, 16]: 0 | Corn plant response rating [8, 13]: 10 | Corn plant response rating [8, 14]: 20 | Plant response rating, Corn [8, 15]: 0 | Plant response rating, Corn [8, 16]: 0 | Plant response rating, Rice [9, 17]: 0 | Plant response rating, Rice [9, 18]: 0 | Plant response rating, Rice [9, 19]: 0 | Plant response rating, Rice ([9]; Flood, 31 g ai/ha): 0 | Plant response rating, Sedge, Umbrella [10, 17]: 0 | Plant response rating, Sedge, Umbrella [10, 18]: 0 | Plant response rating, Sedge, Umbrella [10, 19]: 0 | Plant response rating, Sedge, Umbrella ([10]; Flood, 31 g ai/ha): 0 | Plant response rating, Ducksalad [11, 17]: 0 | Plant response rating, Ducksalad [11, 18]: 0 | Plant response rating, Ducksalad [11, 19]: 0 | Plant response rating, Ducksalad ([11]; Flood, 31 g ai/ha): 0 | Plant response rating, Barnyardgrass [12, 17]: 0 | Plant response rating, Barnyardgrass [12, 18]: 0 | Plant response rating, Barnyardgrass [12, 19]: 0 | Plant response rating, Barnyardgrass ([12]; Flood, 31 g ai/ha): 0
